From patent EP4180043A1, “RUTHENIUM COMPLEXES” (Universidad de Almeria, priority 2020, dated 2022)

System: cancer cells
Test: antiproliferative activity (anticancer properties)
Assay type: cell-based
Conditions: cell line not stated; cisplatin in the same experiment; read-out: antiproliferative activity indicated by the cell survival half-life factor (IC50)
Experimental: Three examples of bi-heterometallic compounds which would be obtained from that compound present better activity as shown by their IC50: IC50 Ru-Zn: 9.07±0.27; IC50 Ru-Co: 5.40±0.19; IC50 Ru-Ni: 7.15±0.30 µM. Ru-Zn = [Ru(η^6-C10H14)(Cl2)-µ-dmoPTA-1κP:2κ^2N,N'-ZnCl2]. Ru-Co = [Ru(η^6-C10H14)(Cl2)-µ-dmoPTA-1κP:2κ^2N,N'-CoCl2]. Ru-Ni = [Ru(η^6-C10H14)(Cl2)-µ-dmoPTA-1κP:2κ^2N,N'-NiCl2].

Molecule | IC50 [µM]
[Ru(η^6-C10H14)(Cl2)-µ-dmoPTA-1κP:2κ^2N,N'-ZnCl2] [Ru-Zn] | 9.07 ± 0.27
[Ru(η^6-C10H14)(Cl2)-µ-dmoPTA-1κP:2κ^2N,N'-NiCl2] [Ru-Ni] | 7.15 ± 0.3
[Ru(η^6-C10H14)(Cl2)(HdmoPTA)](OSO2CF3) | 32.09 ± 0.3
N.N.[Cl][Pt][Cl] [cisplatin, reference compound] | 45.6 ± 8.08
[Ru(η^6-C10H14)(Cl2)-µ-dmoPTA-1κP:2κ^2N,N'-CoCl2] [Ru-Co] | 5.4 ± 0.19
